Test results published in patent publication US12115161B2, “Prophylactic and/or therapeutic agent for inflammatory diseases which contains pyrrolopyrimidine compound as active ingredient” (KEIO UNIVERSITY, priority 2018, dated 2024).

Legend:
[1] = test system: human monocytic cell line THP-1; experiment: IL-6 production inhibitory effect of BAFF in IFNγ-precultured THP-1 cells (Example 2); assay type: cell-based; conditions: for relative amount of IL-6 production: 30 μM, control (BAFF only) = 100%
Protocol: In 24-well plates (manufactured by Corning Inc.) in a RPMI-1640 culture medium (produced by ATCC) containing 10% fetal bovine serum (produced by JRH Biosciences), 5×10^5 cells of human monocytic leukemia cell line THP-1 (obtained from a bioresource bank, Japanese Collection of Research Bioresource) were seeded per well. IFNγ (interferon γ, produced by BD Pharmingen) was added to a final concentration of 200 ng/mL and cultured in a 5% CO2 environment at 37° C. After four days of culture, the culture broth in each well was removed and the cells were washed twice with the culture medium, followed by addition of the culture medium containing a final concentration of 2 μg/mL of recombinant human soluble BAFF (produced by Chemicon), and respective test compounds were added to a final concentration of 20 μM or 2 μM to continue the culture in the same conditions. After three days of culture, the culture supernatant was collected to determine the IL-6 content in the supernatant by ELISA. For ELISA, mouse anti-human IL-6 antibody (produced by BD Pharmingen), biotin-labeled anti-human IL-6 antibody (produced by BD Pharmingen), and HRP-labeled streptavidin (produced by BD Pharmingen) were used. The test compound groups were used by purchasing from Asinex. In the test system, Compound 27 (BIK-13) in PTL 1 was used as a positive control (compound with inhibitory action on IL-6 production by monocytic cells). BIK-13 was the same as the compound of ADM 12880656 by Asinex Japan Inc.
In the presence of 200 ng/mL recombinant human IFNγ (same as Example 1) (entire culture scale of 24-well culture plates at 2 mL/well), 5×10^5 cells of human monocytic cell line THP-1 (same as Example 1) were cultured using a 10% FBS/RPMI 1640 culture medium in a 5% CO2 environment at 37° C. for four days (96 hours). Four days later, an operation of removing the supernatant, adding a new medium, leaving it still in an incubator, and removing the supernatant was repeated twice. After removing the supernatant, recombinant human BAFF (2 μg/mL) was dissolved together with Compound A (ADM 12880492, Asinex Japan Inc.) or Compound B (ADM 12880696, Asinex Japan Inc.) in a medium and added to the culture wells to be cultured for three days. Three days later, the culture supernatant was collected to determine the IL-6 content in the culture supernatant by IL-6 specific ELISA. As a control, instead of Compound A or Compound B, BIK-13 was used.

[2] = test system: human peripheral blood monocytes; experiment: IL-6 production inhibitory effect of BAFF from human peripheral blood monocytes (Example 3); assay type: cell-based; conditions: for IL-6 production inhibitory effect compared with the control: 4 days
Protocol: Monocytes were isolated from normal healthy human peripheral blood using CD14-microbeads. In the presence of 2 μg/mL recombinant human BAFF (same as Example 2) and Compound A (2 μM and 10 μM) (entire culture scale of 24-well culture plates at 2 mL/well), 5×10^5 of the isolated monocytes were cultured using a 10% FBS/RPMI 1640 culture medium in a 5% CO2 environment at 37° C. for four days. Four days later, the supernatant was removed to determine the IL-6 content in the culture supernatant by IL-6 specific ELISA. For comparison, experiments using BIK-13 instead of Compound A were also performed.

[3] = test system: peripheral blood mononuclear cells (PBMC); experiment: IgG production by B cell-stimulation culture using peripheral blood mononuclear cells (Example 5); assay type: cell-based, human; conditions: 7 days (results not shown)
Protocol: Peripheral blood mononuclear cells were isolated from normal healthy human peripheral blood by density gradient centrifugation using Ficoll. In the presence of 5 μg/mL anti-human IgM antibody, 1 μg/mL anti-human CD40 antibody, 30 ng/mL recombinant human IL-21, 30 ng/mL recombinant human BAFF, and Compound A (0.4 μM, 2 μM, and 10 μM), 2×10^5 peripheral blood mononuclear cells were cultured using a 10% FBS/RPMI 1640 culture medium in a 5% CO2 environment at 37° C. for seven days. The cells were cultured in 96-well round-bottom culture plates in a scale of 200 μL per well. Seven days later, the supernatant was removed and the culture supernatant was collected to determine the IgG content in the culture supernatant by ELISA. As controls, experiments in the case of not adding Compound A and the case of adding neither Compound A nor BAFF were also performed. Moreover, for comparison with the effects of Compound A, experiments using BIK-13 instead of Compound A were also performed.

[4] = test system: peripheral blood monocytes and B cells from Sjögren syndrome patients; experiment: IgG production in coculture of BAFF-stimulated peripheral blood monocytes and B cells (Example 4); assay type: cell-based, human; conditions: for IL-6 production inhibitory effect compared with the control: 4 days
Protocol: Monocytes were isolated from Sjögren syndrome patient peripheral blood using CD14 microbeads, and B cells were isolated from the peripheral blood using CD19 microbeads. Using Transwell® culture plates, 2×10^5 monocytes per well were seeded in the upper plate and 1×10^5 B cells in the lower plate to be cultured in the presence of 2 μg/mL recombinant human BAFF (same as Example 2) and Compound A (1 μM and 10 μM) using a 10% FBS/RPMI 1640 culture medium in a 5% CO2 environment at 37° C. for four days (coculture of the peripheral blood monocytes and the B cells via a membrane). Four days later, the supernatant was removed and the culture supernatant was collected to determine the IgG content in the culture supernatant by ELISA. As controls, experiments in the case of not adding Compound A and the case of adding neither Compound A nor BAFF were also performed. Moreover, for comparison with the effects of Compound A, experiments using BIK-13 instead of Compound A were also performed.

Row | Structure (SMILES) | IL-6 production inhibitory effect compared with the control ([1]; 0.04 μM, 0.2 μM and 1 μM together with 2 μg/mL human BAFF, 3 days, ELISA) | relative amount of IL-6 production [1] | IL-6 production inhibitory effect compared with BIK-13 ([1]; THP-1 system of Example 2) | IL-6 production inhibitory effect compared with the control ([2]; 2 μM with 2 μg/mL human BAFF) | IL-6 production inhibitory effect compared with the control ([2]; 10 μM with 2 μg/mL human BAFF) | relative amount of IL-6 production ([2]; 10 μM, control = 100%) | IL-6 production inhibitory effect compared with the control ([3]; 0.4 μM and 2 μM) | IL-6 production inhibitory effect compared with the control ([3]; 10 μM) | IL-6 production inhibitory effect compared with adding no compound ([1]; 1.2 μM with 2 μg/mL human BAFF, 3 days) | IL-6 production inhibitory effect compared with adding no compound ([1]; 6 μM and 30 μM with 2 μg/mL human BAFF, 3 days) | IL-6 production inhibitory effect compared with the control ([4]; 1 μM with 2 μg/mL human BAFF) | IL-6 production inhibitory effect compared with the control ([4]; 10 μM with 2 μg/mL human BAFF) | cancellation of the IgG antibody production enhancement by BAFF ([4]; 10 μM, compared with adding neither compound nor BAFF)
1 | Cc1c(C)n(C2CCCC2)c2ncnc(OC3CCN(CCC#N)CC3)c12 [Compound B, 3-[4-{(7-cyclopentyl-5,6-dimethyl-7H-pyrrolo[2,3-d]pyrimidin-4-yl)oxy}piperidin-1-yl]propanenitrile] | significant (p<0.001) IL-6 production inhibitory effects | below 50% | stronger IL-6 production inhibitory effect than BIK-13 |  |  |  |  |  |  |  |  |  | 
2 | Cc1c(C)n(C2CCCC2)c2ncnc(OC3CCN(C(=O)CN4CCCC4=O)CC3)c12 [BIK-13, reference compound] |  | 52.8±2.2% |  | no significant difference | significant (p<0.05) IL-6 production inhibitory effect | 80.2±14.5% | no significant difference | significant (p<0.01) IL-6 production inhibitory effect | no significant difference | significant (p<0.001) IL-6 production inhibitory effects | no significant difference | significant (p<0.01) IL-6 production inhibitory effect | not completely cancelled
